Drawing on patent publication US8450494B2, “Disubstituted benzamide derivatives as glucokinase (GK) activators” (Cadila Healthcare Limited, priority 2010, dated 2013), this text covers activity and EC50 for 16 compounds.

A word on the EC50: it is the midpoint of the concentration-response curve. A lower EC50 goes with a more potent agent.

The assay has as its target T1, glucokinase (GK) enzyme (Homo sapiens, UniProt P35557).
T1 sequence (P35557 1-465): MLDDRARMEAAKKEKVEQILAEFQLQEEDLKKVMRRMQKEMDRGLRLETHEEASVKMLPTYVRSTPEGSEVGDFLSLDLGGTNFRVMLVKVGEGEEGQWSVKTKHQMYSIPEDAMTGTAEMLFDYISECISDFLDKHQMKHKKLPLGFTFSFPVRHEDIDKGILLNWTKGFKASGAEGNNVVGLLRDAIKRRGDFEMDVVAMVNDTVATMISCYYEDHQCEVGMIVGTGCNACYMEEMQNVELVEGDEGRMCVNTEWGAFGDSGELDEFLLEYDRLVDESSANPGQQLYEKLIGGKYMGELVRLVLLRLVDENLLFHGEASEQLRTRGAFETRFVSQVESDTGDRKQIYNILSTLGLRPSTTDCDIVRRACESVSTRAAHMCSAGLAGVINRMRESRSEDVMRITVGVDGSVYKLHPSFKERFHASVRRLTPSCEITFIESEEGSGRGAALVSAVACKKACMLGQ
Briefly: In-vitro glucokinase (GK) enzyme activation assay (coupled with glucose-6-phosphate dehydrogenase, absorbance at 340). The class given is biochemical. As to conditions: glucose 2.5 mM, ATP 1 mM; for activity at 0.1 µM: compound 0.1 uM; for activity at 0.1 µM / activity at 1 µM / activity at 5 µM / activity at 10 µM: read-out: % of GK activity wrt DMSO; for activity at 1 µM: compound 1 uM; for activity at 5 µM: compound 5 uM; for activity at 10 µM: compound 10 uM; for EC50: GK activation. Here is the method: The compound of the invention was incubated with glucokinase (GK) enzyme (0.2 units) for 10 minutes in assay buffer at 26° C. After incubation, addition of glucose-6-phosphate dehydrogenase (2.5 units), ATP (1 mM) and glucose (2.5 mM). Absorbance is measured at 340 nm for 15 minutes with 10 second interval using UV transparent plate in kinetic mode on Spectramax-190 at 30° C.

The structures appear in SMILES notation.

Consider `COCC(C)Oc1cc(Oc2ccc(-c3nnc(C)o3)cc2)cc(C(=O)Nc2ncc(C(=O)O)s2)c1` (stereo not drawn) [Example 2.18, 2-{3-[(1-Methoxypropan-2-yl)oxy]-5-[4-(5-methyl-1,3,4-oxadiazol-2-yl)phenoxy]benzamido}thiazole-5-carboxylic acid], for which the activity at 0.1 µM amounted to 105%, the activity at 1 µM amounted to 149%, the activity at 5 µM stood at 251% and the activity at 10 µM was 260%.

With `COCC(C)Oc1cc(Oc2ccc(-c3nnc(CC(C)C)o3)cc2)cc(C(=O)Nc2nccs2)c1` (stereo not drawn) [Example 2.22, 3-(4-(5-Isobutyl-1,3,4-oxadiazol-2-yl)phenoxy)-5-((1-methoxypropan-2-yl)oxy)-N-(thiazol-2-yl)benzamide], the activity at 0.1 µM was 153%, the activity at 1 µM came out at 323%, the activity at 5 µM was 436% and the activity at 10 µM was found to be 418%.

Take `COC(C)CCOc1cc(Oc2ccc(-c3nnc(C)o3)cc2)cc(C(=O)Nc2nccs2)c1` (stereo not drawn) [Example 1.7, 3-(3-Methoxybutoxy)-5-(4-(5-methyl-1,3,4-oxadiazol-2-yl)phenoxy)-N-(thiazol-2-yl)benzamide]: the activity at 0.1 µM was 164%, the activity at 1 µM was 228%, the activity at 5 µM was 245% and the activity at 10 µM was 236%.

In the case of `COCC(C)Oc1cc(Oc2ccc(-c3nnc(C)o3)cc2)cc(C(=O)Nc2ncc(Br)s2)c1` (stereo not drawn) [Example 2.36, N-(5-Bromothiazol-2-yl)-3-((1-methoxypropan-2-yl)oxy)-5-(4-(5-methyl-1,3,4-oxadiazol-2-yl)phenoxy)benzamide], the activity at 0.1 µM was determined as 210%, the activity at 1 µM was determined as 271%, the activity at 5 µM amounted to 316% and the activity at 10 µM is 302%.

Take `Cc1csc(NC(=O)c2cc(OCC3CCCCC3)cc(Oc3ccc(-c4nnc(C)o4)cc3)c2)n1` [Example 2.3, 3-(Cyclohexylmethoxy)-5-(4-(5-methyl-1,3,4-oxadiazol-2-yl)phenoxy)-N-(4-methylthiazol-2-yl)benzamide]: the activity at 0.1 µM turned out to be 123%, the activity at 1 µM turned out to be 137%, the activity at 5 µM turned out to be 148% and the activity at 10 µM was found to be 150%.

Take `COCC(C)Oc1cc(Oc2ccc(-c3nnc(C4CC4)o3)cc2)cc(C(=O)Nc2nccs2)c1` (stereo not drawn) [Example 2.28, 3-(4-(5-Cyclopropyl-1,3,4-oxadiazol-2-yl)phenoxy)-5-((1-methoxypropan-2-yl)oxy)-N-(thiazol-2-yl)benzamide]: the activity at 0.1 µM amounted to 223%, the activity at 1 µM came to 450%, the activity at 5 µM was 493% and the activity at 10 µM stood at 488%.

On to `C=CCOc1cc(Oc2ccc(-c3nnc(C)o3)cc2)cc(C(=O)Nc2ncc(C)s2)c1` [Example 2.14, 3-(Allyloxy)-5-(4-(5-methyl-1,3,4-oxadiazol-2-yl)phenoxy)-N-(5-methylthiazol-2-yl)benzamide], for which the activity at 0.1 µM was 116%, the activity at 1 µM was 184%, the activity at 5 µM came to 241% and the activity at 10 µM was 215%.

`COC[C@H](C)Oc1cc(Oc2ccc(-c3nnc(C)o3)cc2)cc(C(=O)Nc2nccs2)c1` [Example 2.1, (S)-3-(1-Methoxypropan-2-yloxy)-5-(4-(5-methyl-1,3,4-oxadiazol-2-yl)phenoxy)-N-(thiazol-2-yl)benzamide]: the EC50 worked out at 0.014 µM, the activity at 0.1 µM stood at 271%, the activity at 1 µM was 267% and the activity at 5 µM is 271%. The activity at 10 µM amounted to 282%.

`CCc1nnc(-c2ccc(Oc3cc(OC(C)COC)cc(C(=O)Nc4nccs4)c3)cc2)o1` (stereo not drawn) [Example 2.25, 3-(4-(5-Ethyl-1,3,4-oxadiazol-2-yl)phenoxy)-5-((1-methoxypropan-2-yl)oxy)-N-(thiazol-2-yl)benzamide]: the activity at 0.1 µM amounted to 224%, the activity at 1 µM was determined as 384%, the activity at 5 µM is 439% and the activity at 10 µM stood at 418%.

As for `C=CCCOc1cc(Oc2ccc(-c3nnc(C)o3)cc2)cc(C(=O)Nc2nc(C)cs2)c1` [Example 2.12, 3-(But-3-en-1-yloxy)-5-(4-(5-methyl-1,3,4-oxadiazol-2-yl)phenoxy)-N-(4-methylthiazol-2-yl)benzamide], the activity at 0.1 µM was determined as 140%, the activity at 1 µM turned out to be 176%, the activity at 5 µM is 302% and the activity at 10 µM was 144%.

Turning to `COCC(C)Oc1cc(Oc2ccc(-c3nnc(C)o3)cc2)cc(C(=O)Nc2nc(C(=O)O)cs2)c1` (stereo not drawn) [Example 2.17, 2-{3-[(1-Methoxypropan-2-yl)oxy]-5-[4-(5-methyl-1,3,4-oxadiazol-2-yl)phenoxy]benzamido}thiazole-4-carboxylic acid], the activity at 0.1 µM is 113%, the activity at 1 µM worked out at 170%, the activity at 5 µM was found to be 306% and the activity at 10 µM amounted to 350%.

On to `Cc1nnc(-c2ccc(Oc3cc(OCC4CCCCC4)cc(C(=O)Nc4nccs4)c3)cc2)o1` [Example 2.2, 3-(Cyclohexylmethoxy)-5-(4-(5-methyl-1,3,4-oxadiazol-2-yl)phenoxy)-N-(thiazol-2-yl)benzamide], for which the concentration giving a half-maximal response (EC50) came out at 0.316 µM, the activity at 0.1 µM was 146%, the activity at 1 µM worked out at 178% and the activity at 5 µM amounted to 193%. The activity at 10 µM worked out at 192%.

Consider `COCC(C)Oc1cc(Oc2ccc(-c3nnc(C)o3)cc2)cc(C(=O)Nc2ncc(C)s2)c1` (stereo not drawn) [Example 2.9, 3-((1-Methoxypropan-2-yl)oxy)-5-(4-(5-methyl-1,3,4-oxadiazol-2-yl)phenoxy)-N-(5-methylthiazol-2-yl)benzamide], for which the activity at 0.1 µM worked out at 251%, the activity at 1 µM stood at 278%, the activity at 5 µM came to 283% and the activity at 10 µM stood at 279%.

For the compound `CCOC(=O)c1csc(NC(=O)c2cc(Oc3ccc(-c4nnc(C)o4)cc3)cc(OC(C)COC)c2)n1` (stereo not drawn) [Example 2.19, Ethyl 2-{3-[(1-methoxypropan-2-yl)oxy]-5-[4-(5-methyl-1,3,4-oxadiazol-2-yl)phenoxy]benzamido}thiazole-4-carboxylate], the activity at 0.1 µM worked out at 106%, the activity at 1 µM was found to be 188%, the activity at 5 µM turned out to be 318% and the activity at 10 µM was 344%.

`COCC(C)Oc1ccc(Oc2ccc(-c3nnc(C)o3)cc2)cc1C(=O)Nc1nccs1` (stereo not drawn) [Example 1.3, 2-(1-Methoxypropan-2-yloxy)-5-(4-(5-methyl-1,3,4-oxadiazol-2-yl)phenoxy)-N-(thiazol-2-yl)benzamide]: the activity at 0.1 µM is 99.8%, the activity at 1 µM was found to be 96.8%, the activity at 5 µM is 110% and the activity at 10 µM is 107%.

Regarding `COC[C@H](C)Oc1cc(Oc2ccc(-c3nnc(C)o3)cc2)cc(C(=O)Nc2ncc(C)s2)c1` [Example 2.11, (S)-3-((1-Methoxypropan-2-yl)oxy)-5-(4-(5-methyl-1,3,4-oxadiazol-2-yl)phenoxy)-N-(5-methylthiazol-2-yl)benzamide], the activity at 0.1 µM turned out to be 235%, the activity at 1 µM came to 258%, the activity at 5 µM is 191% and the activity at 10 µM stood at 243%.
